In ChEMBL document CHEMBL5729376, “SSAO inhibitors and use thereof” (2022):

Tests used:
[1] = target: T1, Amine oxidase [flavin-containing] A (Homo sapiens, UniProt P21397); assay: (§1) SSAO Activity Assay: Amine oxidase activity of recombinant hSSAO, hMAO-A, and hMAO-B isoforms are measured using the MAO-Glo assay kit (Promega, V1402). Ten nL test compounds (with DMSO as vehicle, 0.1% v/v for hSSAO, hMAO-A and hMAO-B) were added into assay plates by Echo, and pre-incubated with 5 μL of enzyme for 30 mins at room temperature before the addition of 5 μL of luminogenic substrate. The substrate concentration is 40 μM for human recombinant SSAO, 40 μM for human recombinant MAO-A, and 4 μM for human recombinant MAO-B. The hSSAO and hMAO-A assays were conducted in the MAO-A reaction buffer in the kit, and the MAO-B assay was conducted in the MAO-B reaction buffer. Oxidation of the substrate was conducted for 1 hr, before the addition of detecting reagent according the manufacture's protocol. The IC50 value of the tested compounds was calculated by fitting the dose response curve using a 4-parameter non-linear regression routine.
T1 sequence (P21397 whole entry): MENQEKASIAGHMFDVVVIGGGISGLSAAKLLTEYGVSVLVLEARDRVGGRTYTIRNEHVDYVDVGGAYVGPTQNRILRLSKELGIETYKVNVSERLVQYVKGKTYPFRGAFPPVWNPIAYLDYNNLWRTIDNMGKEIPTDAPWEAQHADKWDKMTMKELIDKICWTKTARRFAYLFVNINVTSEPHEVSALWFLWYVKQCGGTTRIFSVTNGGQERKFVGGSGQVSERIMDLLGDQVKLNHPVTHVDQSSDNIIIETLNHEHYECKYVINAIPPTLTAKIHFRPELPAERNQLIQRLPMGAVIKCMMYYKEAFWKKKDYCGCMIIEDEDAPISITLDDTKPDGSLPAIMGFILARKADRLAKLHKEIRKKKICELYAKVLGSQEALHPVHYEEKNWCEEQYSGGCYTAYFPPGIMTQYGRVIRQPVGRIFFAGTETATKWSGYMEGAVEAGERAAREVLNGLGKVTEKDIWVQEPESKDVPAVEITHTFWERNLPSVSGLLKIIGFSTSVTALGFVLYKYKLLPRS

[2] = target: T2, Amine oxidase [flavin-containing] B (Homo sapiens, UniProt P27338); assay: as §1
T2 sequence (P27338 whole entry): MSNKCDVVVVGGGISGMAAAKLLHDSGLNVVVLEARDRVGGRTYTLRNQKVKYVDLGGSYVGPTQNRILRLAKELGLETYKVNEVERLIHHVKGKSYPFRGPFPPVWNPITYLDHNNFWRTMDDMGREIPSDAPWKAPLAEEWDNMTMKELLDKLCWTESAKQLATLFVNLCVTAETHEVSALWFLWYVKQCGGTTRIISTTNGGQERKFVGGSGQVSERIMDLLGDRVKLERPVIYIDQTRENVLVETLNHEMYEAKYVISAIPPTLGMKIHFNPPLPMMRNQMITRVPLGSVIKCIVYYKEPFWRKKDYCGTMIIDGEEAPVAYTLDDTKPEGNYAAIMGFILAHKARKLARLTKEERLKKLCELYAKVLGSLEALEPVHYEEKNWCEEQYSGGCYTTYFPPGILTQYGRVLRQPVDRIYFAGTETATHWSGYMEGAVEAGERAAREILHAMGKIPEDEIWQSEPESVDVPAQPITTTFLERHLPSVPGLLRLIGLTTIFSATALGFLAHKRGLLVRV

| Structure (SMILES) | IC50 [1] [µM] | IC50 [2] [µM] |
| --- | --- | --- |
| NC/C(=C\F)COc1ccc(S(=O)(=O)Cn2ccccc2=O)cc1 | > 30 | < 10 |
| C[C@H](CN1CCOCC1)CS(=O)(=O)c1ccc(OC/C(=C/F)CN)cc1 | > 30 | > 30 |
| NC/C(=C\F)COc1ccc(S(=O)(=O)Cc2cnc(N3CCCC3)nc2)cc1 | > 30 | < 10 |
| NC/C(=C\F)COc1ccc(S(=O)(=O)CC2(CN3CCCCC3=O)CC2)cc1 | > 30 | > 30 |
| C[C@@H](CN1CCOCC1)CS(=O)(=O)c1ccc(OC/C(=C/F)CN)cc1 | > 30 | > 30 |
| NC/C(=C\F)COc1ccc(S(=O)(=O)CC23CC(C(=O)NC4CCC4)(C2)C3)cc1 | > 30 | < 10 |
| NC/C(=C\F)COc1ccc(S(=O)(=O)CC23CCC(C(=O)NC4CCC4)(CC2)C3)cc1 | > 30 | < 10 |
| C[C@H](CN1CCC2(CCCC2)C1=O)CS(=O)(=O)c1ccc(OC/C(=C/F)CN)cc1 | > 30 | < 10 |
| CC(C)n1ccc(CS(=O)(=O)c2ccc(OC/C(=C/F)CN)cc2)cc1=O | > 30 | < 10 |

Results, then the compound that gave them:

| IC50 [1] [µM] | IC50 [2] [µM] | Structure (SMILES) |
| --- | --- | --- |
| > 30 | < 10 | C[C@@H](CN1CCC2(CCCC2)C1=O)CS(=O)(=O)c1ccc(OC/C(=C/F)CN)cc1 |
| > 30 | > 30 | C[C@H](CN1CCCCC1=O)CS(=O)(=O)c1ccc(OC/C(=C/F)CN)cc1 |
| > 30 | < 10 | CC(C)n1nc(CS(=O)(=O)c2ccc(OC/C(=C/F)CN)cc2)ccc1=O |
| > 30 | > 30 | NC/C(=C\F)COc1ccc(S(=O)(=O)CC23CCC(C(=O)O)(CC2)CC3)cc1 |
| > 30 | < 10 | C[C@@H](CS(=O)(=O)c1ccc(OC/C(=C/F)CN)cc1)N1CCCCC1=O |
| > 30 | > 30 | CCN(CC(C)CS(=O)(=O)c1ccc(OC/C(=C/F)CN)cc1)C(=O)C(C)C (configuration not stated) |
| > 30 | > 30 | CC(C)N1CCN(CS(=O)(=O)c2ccc(OC/C(=C/F)CN)cc2)C(=O)C1 |
| > 30 | > 30 | NC/C(=C\F)COc1ccc(S(=O)(=O)CN2CCCC2=O)cc1 |
| > 30 | < 10 | NC/C(=C/F)COc1ccc(S(=O)(=O)CC23CCC(NC(=O)C4CC4)(CC2)CC3)cc1 |
| > 30 | > 30 | CC(C)(CN1CCOCC1)CS(=O)(=O)c1ccc(OC/C(=C/F)CN)cc1 |
| > 30 | > 30 | C[C@@H](CN1CCCCC1=O)CS(=O)(=O)c1ccc(OC/C(=C/F)CN)cc1 |
| 10 to 30 | > 30 | NC/C(=C\F)COc1ccc(S(=O)(=O)CC2CCCN(C(=O)C3CCCC3)C2)cc1 (configuration not stated) |
